According to US9029343B2, “Modulators of histone methyltransferase, and methods of use thereof” (Epizyme, Inc., priority 2010, dated 2015):
pIC50: −log10 of the molar value.

Key:
[1] = system: H3K4, H3K9 and H3K27 methylation in THP-1 cells; experiment: Methylation analysis: other histone methylation sites in THP-1 cells; type: cell-based, Human; conditions: antibodies to H3K4me3, H3K9me3, H3K27me2, H3K27me3
Procedure: (§1) Cells were seeded at 5×10^5 cells/mL in a 12 well plate at a final volume of 2 mLs. Cells were dosed with compounds to the appropriate concentration from a 50 mM DMSO stock solution. Compound and media were refreshed every two days over the course of seven day incubation by counting cells using trypan blue exclusion (Vicell), pelleting at 200 g for 5 minutes and resuspending in fresh media containing compound at a final cell concentration of 5×10^5 cells/mL. Following compound incubation, histones were extracted from 1×10^6 cells using a commercial histone extraction kit (Active Motif). Purified histones were quantitated using the BCA protein assay (Pierce) with a BSA standard curve. 400 ng of isolated histones were fractionated by SDS-PAGE on a 4-20% gel and transferred to nitrocellulose membranes. Membranes were incubated with various primary and secondary antibodies and imaged on the Licor imaging system (Odyssey). The H3K79-Me2 rabbit polyclonal was purchased from Abcam. Other rabbit polyclonal antibodies including H3K4-Me3, H3K9-Me3, H3K27-Me2, and H3K27-Me3 were purchased from Cell Signaling Technologies (CST). A mouse monoclonal total H3 antibody was used as a loading control (CST). Fluorescently labeled secondary antibodies were purchased from Odyssey.

[2] = system: H3K79me2 in THP-1 cells; experiment: Methylation analysis: cellular H3K79 dimethylation in THP-1 cells; type: cell-based, Human
Procedure: THP-1 cells were incubated in the presence 50 μM of the indicated compounds for seven days. […] Following treatment, cells were harvested, and histones were extracted, fractionated by SDS-PAGE on a 4-20% gel, transferred to nitrocellulose membranes, and probed with antibodies to histone H3 and histone H3 dimethylated at lysine 79 (H3K79me2). Histones extracted from THP-1 cells expressing control (shNTC) and DOT1L targeting (shDOT1L) shRNAs were included as controls.
as §1, with “Following compound incubation, histones were extracted from 1×10^6 cells using a commercial histone extraction kit (Active Motif).” left out

[3] = biological target: EZH2 (Homo sapiens, UniProt Q15910); experiment: EZH2 IC50 (FIGS. 7A and 7B); type: biochemical
Sequence of EZH2 (Q15910 whole entry, species assumed): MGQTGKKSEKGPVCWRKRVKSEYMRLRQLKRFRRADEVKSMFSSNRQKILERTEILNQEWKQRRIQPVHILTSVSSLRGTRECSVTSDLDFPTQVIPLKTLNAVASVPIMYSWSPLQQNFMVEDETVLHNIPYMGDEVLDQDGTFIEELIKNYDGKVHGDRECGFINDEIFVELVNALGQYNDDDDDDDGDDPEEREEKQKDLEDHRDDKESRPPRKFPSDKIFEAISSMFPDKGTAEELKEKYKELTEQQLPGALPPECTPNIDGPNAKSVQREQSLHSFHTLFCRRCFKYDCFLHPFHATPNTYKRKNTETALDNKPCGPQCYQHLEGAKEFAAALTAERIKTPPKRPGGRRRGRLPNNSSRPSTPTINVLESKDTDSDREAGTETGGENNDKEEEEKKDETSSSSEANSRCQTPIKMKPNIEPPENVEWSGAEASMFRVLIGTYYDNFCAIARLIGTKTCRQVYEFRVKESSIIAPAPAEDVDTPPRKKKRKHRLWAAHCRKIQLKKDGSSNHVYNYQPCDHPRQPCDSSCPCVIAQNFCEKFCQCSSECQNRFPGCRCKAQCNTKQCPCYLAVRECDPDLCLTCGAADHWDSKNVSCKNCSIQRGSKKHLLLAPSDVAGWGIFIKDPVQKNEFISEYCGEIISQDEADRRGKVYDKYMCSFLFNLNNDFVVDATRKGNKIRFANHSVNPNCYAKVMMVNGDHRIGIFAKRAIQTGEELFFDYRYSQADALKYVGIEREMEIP
Sequence of EZH2 (O75530 whole entry partner, species assumed): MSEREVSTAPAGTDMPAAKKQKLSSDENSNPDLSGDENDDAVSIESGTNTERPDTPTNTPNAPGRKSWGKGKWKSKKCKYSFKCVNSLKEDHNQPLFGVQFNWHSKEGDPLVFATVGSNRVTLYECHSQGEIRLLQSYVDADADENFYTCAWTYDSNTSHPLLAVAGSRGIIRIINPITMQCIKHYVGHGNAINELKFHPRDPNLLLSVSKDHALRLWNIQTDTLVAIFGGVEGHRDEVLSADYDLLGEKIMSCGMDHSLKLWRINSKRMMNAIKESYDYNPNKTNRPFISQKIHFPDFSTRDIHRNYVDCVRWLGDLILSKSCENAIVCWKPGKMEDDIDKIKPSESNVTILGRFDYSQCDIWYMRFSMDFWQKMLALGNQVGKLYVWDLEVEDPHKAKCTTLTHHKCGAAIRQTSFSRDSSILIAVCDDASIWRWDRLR
Sequence of EZH2 (Q15022 whole entry partner, species assumed): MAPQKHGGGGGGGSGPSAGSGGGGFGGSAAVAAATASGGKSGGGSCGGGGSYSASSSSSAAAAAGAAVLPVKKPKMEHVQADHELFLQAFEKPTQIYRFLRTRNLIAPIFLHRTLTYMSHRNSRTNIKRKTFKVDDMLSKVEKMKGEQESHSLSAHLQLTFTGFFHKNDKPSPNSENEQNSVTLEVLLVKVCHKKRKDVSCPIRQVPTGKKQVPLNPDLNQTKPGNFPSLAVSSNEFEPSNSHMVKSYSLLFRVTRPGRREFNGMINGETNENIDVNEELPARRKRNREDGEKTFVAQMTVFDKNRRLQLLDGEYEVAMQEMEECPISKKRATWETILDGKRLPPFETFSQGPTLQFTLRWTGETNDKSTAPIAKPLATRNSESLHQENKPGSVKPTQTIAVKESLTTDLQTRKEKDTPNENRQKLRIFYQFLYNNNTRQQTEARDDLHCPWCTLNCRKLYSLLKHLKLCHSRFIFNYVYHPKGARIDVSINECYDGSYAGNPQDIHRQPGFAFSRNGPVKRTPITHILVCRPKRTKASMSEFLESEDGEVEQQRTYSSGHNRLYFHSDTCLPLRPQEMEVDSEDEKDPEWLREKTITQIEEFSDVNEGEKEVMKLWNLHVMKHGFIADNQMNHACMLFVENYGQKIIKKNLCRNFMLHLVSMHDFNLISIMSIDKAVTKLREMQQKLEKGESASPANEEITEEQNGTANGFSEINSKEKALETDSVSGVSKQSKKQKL

pIC50 [3] | SMILES | also measured
 | CN(CCCNC(=O)Nc1ccc(C(C)(C)C)cc1)C[C@H]1O[C@@H](n2cnc3c(N)ncnc32)[C@H](O)[C@@H]1O [Compound 118, 1-(3-((((2R,3S,4R,5R)-5-(6-amino-9H-purin-9-yl)-3,4-dihydroxytetrahydrofuran-2-yl)methyl)(methyl)amino)propyl)-3-(4-(tert-butyl)phenyl)urea] | effect on sites targeted by other histone methyltransferases (H3K4, H3K9 and H3K27) [1]: did not affect; cellular histone H3 lysine 79 dimethylation (H3K79me2) level ([2]; 50 μM, seven days, western blot): dramatically reduced; concentration at which reduction in H3K79me2 was still observed ([2]; seven days, lowest concentration tested): ≤ 0.4 µM; concentration dependence of reduction in H3K79me2 levels ([2]; several concentrations): dose dependent reduction
< 4.30 | CN(CCCOC(=O)Nc1ccc(C(C)(C)C)cc1)C[C@H]1O[C@@H](n2cnc3c(N)ncnc32)[C@H](O)[C@@H]1O [Compound 152] | 
< 4.30 | CN(CCCCNC(=O)Nc1ccc(C(C)(C)C)cc1)C[C@H]1O[C@@H](n2cnc3c(N)ncnc32)[C@H](O)[C@@H]1O [Compound 159] | 
< 4.30 | CN(C[C@H]1O[C@@H](n2cnc3c(N)ncnc32)[C@H](O)[C@@H]1O)CC(C)(C)CNC(=O)Nc1ccc(C(C)(C)C)cc1 [Compound 163] | 
< 4.30 | CN(C[C@H]1O[C@@H](n2cnc3c(N)ncnc32)[C@H](O)[C@@H]1O)CC1(CNC(=O)Nc2ccc(C(C)(C)C)cc2)CC1 [Compound 167] | 
< 4.30 | CCN(CCCNC(=O)Nc1ccc(C(C)(C)C)cc1)C[C@H]1O[C@@H](n2cnc3c(N)ncnc32)[C@H](O)[C@@H]1O [Compound 169] | 
< 4.30 | CN(CCCN(C)C(=O)Nc1ccc(C(C)(C)C)cc1)C[C@H]1O[C@@H](n2cnc3c(N)ncnc32)[C@H](O)[C@@H]1O [Compound 173] | 
< 4.30 | CN(CCCCC(=O)Nc1ccc(C(C)(C)C)cc1)C[C@H]1O[C@@H](n2cnc3c(N)ncnc32)[C@H](O)[C@@H]1O [Compound 179] | 
< 4.30 | CN(CCCNC(=O)Nc1ccc(Oc2ccccc2N)cc1)C[C@H]1O[C@@H](n2cnc3c(N)ncnc32)[C@H](O)[C@@H]1O [Compound 183] | 
< 4.30 | CN(CCCNC(=O)Nc1ccc(C2CCCCC2)cc1)C[C@H]1O[C@@H](n2cnc3c(N)ncnc32)[C@H](O)[C@@H]1O [Compound 185] | 
< 4.30 | CN(CCCNC(=O)Nc1ccc(-c2cscn2)cc1)C[C@H]1O[C@@H](n2cnc3c(N)ncnc32)[C@H](O)[C@@H]1O [Compound 190] | 
< 4.30 | CC(=O)N(CCCNC(=O)Nc1ccc(C(C)(C)C)cc1)C[C@H]1O[C@@H](n2cnc3c(N)ncnc32)[C@H](O)[C@@H]1O [Compound 195] | 
< 4.30 | Cc1cccc(-c2ccc(NC(=O)NCCCN(C)C[C@H]3O[C@@H](n4cnc5c(N)ncnc54)[C@H](O)[C@@H]3O)cc2)c1 [Compound 199] | 
< 4.30 | CC(C)(C)c1ccc(NC(=O)NCCCN(C=O)C[C@H]2O[C@@H](n3cnc4c(N)ncnc43)[C@H](O)[C@@H]2O)cc1 [Compound 206] | 
< 4.30 | CC(C)CN(CCCNC(=O)Nc1ccc(C(C)(C)C)cc1)C[C@H]1O[C@@H](n2cnc3c(N)ncnc32)[C@H](O)[C@@H]1O [Compound 209] | 
< 4.30 | CN(CCCCCNC(=O)Nc1ccc(C(C)(C)C)cc1)C[C@H]1O[C@@H](n2cnc3c(N)ncnc32)[C@H](O)[C@@H]1O [Compound 213] | 
< 4.30 | CC(CNC(=O)Nc1ccc(C(C)(C)C)cc1)CN(C)C[C@H]1O[C@@H](n2cnc3c(N)ncnc32)[C@H](O)[C@@H]1O (some centres unmarked) [Compound 223] | 
